Entries after “also recorded” stand apart in the source; their conditions may differ.
Key:
Huh7 cells [1] = assay: Lipid droplet (LD) formation in Huh7 cells, BODIPY 493/503 staining, confocal microscopy; type: cell-based; conditions: Homo sapiens, Huh-7, 24 h
Description: FIGS. 5A-5D. Effect of HPN-01 on hepatocellular lipid droplet (LD) biogenesis. Heptoma cell line Huh7 cells were treated with various amounts of HPN-01 for 24 hours, either in the absence or in the presence of 400 μM oleic acid, which triggers LD formation, after which intracellular LD contents were observed using a Zeiss confocal microscope with fluorescence. FIG. 5A) Fluorescent analysis of untreated (DMSO) or HPN-01-treated cells in the absence (Top panels) and presence (Bottom panels) of oleic acid. Cellular LD contents were stained using BODIPY 493/503 and are shown in green. Blue indicates cell nuclei. FIG. 5B) LD size of treated and untreated (DMSO) cells, in the presence or absence of oleic acid. FIG. 5C) Mean fluorescence intensity of untreated (DMSO) and treated cells in the absence of oleic acid. FIG. 5D) Mean fluorescence intensity of untreated (DMSO) and treated cells in the presence of oleic acid.
Heptoma cell line Huh7 cells were treated with various amounts of HPN-01 for 24 h, either in the absence or in the presence of 400 μM oleic acid, and observed under a Zeiss confocal microscope. […] LD contents (stained with BODIPY 493/503, in green) were observed under a Zeiss confocal microscope. FIG. 5A. Blue indicates cell nuclei. FIG. 5B. LD size. FIG. 5C. Mean fluorescence intensity. Values were measured using ZEN software by counting 300 cells under each treatment condition.

[2] = test system: high fat diet-induced NAFLD/NASH mice; assay: High fat diet-induced NAFLD/NASH mice; type: in vivo, C57BL/6 mice
Description: FIG. 11. Study design of in vivo HPN-01 effects on high fat diet-induced NAFLD/NASH mice.
Eight-week old C57BL/6 mice were divided into a test group and a control group. The control group mice were fed with normal chow diet (NCD) for 24 weeks. The test group was further divided into a preventing group and a treatment group. In the preventing group, mice were fed with high-fat diet (HFD) and simultaneously treated with 25 mg/kg of HPN-01 or vehicle daily for 16 weeks, after which time the mice were euthanized and evaluated for NAFLD/NASH development. In the treatment group, mice were fed with HFD for 12 weeks to stimulate the development of NAFLD/NASH, and then treated with 25 mg/kg of HPN-01 or vehicle daily for additional 12 weeks. The mice were then euthanized and evaluated for the presence of NAFLD/NASH. This study design is illustrated in FIG. 11.
To determine the effect of HPN-01 on various fat-related molecules in the liver of mice from the study in Example 8, liver tissues were isolated and prepared and the levels of hepatic triglyceride and glycogen were measured.
The livers of mice from the study of Example 8 were also analysed for their levels of cholesterol, SREBP-1, and fatty acid synthesis. […] Likewise, SREBP-1 expression in HFD-fed mice with HPN-01 treatment was 0.52±0.06, a reduction of about 48% when compared with HFD-fed mice receiving only vehicle (FIG. 15B).
Plasma cholesterol and triglyceride levels were determined in blood taken from mice in the study described in Example 8.
Liver tissues from mice in the study of Example 8 were analysed for the expression level of inflammatory cytokines.
Liver tissues from mice in the study of Example 8 were analysed for the expression levels of hepatic molecules involved in the formation of fibrotic scarring.
Liver tissues were then analysed to determine the levels of various pro-fibrotic cytokines. […] The expression level of TIMP2, a fibrosis suppressor, was increased in the presence of HPN-01.

SREBP-2 = SREBP-2 expression in cultured primary human hepatocytes; type: cell-based; conditions: Hepatocyte
Method in brief: (§1)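 Primary human hepatocytes in culture exposed to a range of HPN-01 derivative concentrations; SREBP-1 and SREBP-2 mRNA expression then measured to assess inhibition.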

Huh7 cells [3] = assay: LD content in Huh7 cells pre-treated with insulin, Oil-Red-O staining, absorbance OD 540 nm; type: cell-based; conditions: Homo sapiens, Huh-7; Huh7 cells pre-treated with 1 mM insulin, 24 h; read-out: LD contents IC50 (Oil-Red-O, OD 540 nm)
Method in brief: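 Huh7 cells, mock-treated or pre-treated with 1 mM insulin, were then exposed to compound at the indicated amounts. Lipid droplets stained with Oil Red O and quantified by absorbance at OD 540 nm.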

adiponectin = assay: Secreted adiponectin in differentiated 3T3-L1 cells by ELISA; type: cell-based; conditions: differentiated mouse 3T3-L1 cells
Description: Differentiated, mouse 3T3-L1 cells were treated with varying concentrations of HPN-01, and the level of secreted adiponectin measured by ELISA.

SREBP-1 = SREBP-1 expression in cultured primary human hepatocytes; type: cell-based; conditions: Hepatocyte
Method in brief: as §1

[4] = HFD-fed mice with HPN-01 treatment
[5] = HFD-fed mice, 25 mg/kg daily, 25 mg/kg
[6] = HFD-fed mice, preventing group (25 mg/kg daily, 16 weeks)
[7] = HFD-fed mice, treatment group (HFD 12 weeks, then 25 mg/kg daily 12 weeks)

- IC50 (Huh7 cells [1]; with oleic acid stimulation (400 μM)): 270 nM
- IC50 (Huh7 cells [1]; without oleic acid pre-treatment): 460 nM
- IC50 (Huh7 cells [3]): 250 nM
- IC50 (adiponectin): 320 nM
Structure (SMILES): NC(=O)c1cc(-c2ccc(Cl)cc2)cc(-c2ccc(S(N)(=O)=O)cc2)c1N [HPN-01, 2-amino-3-(p-sulfonamidophenyl)-5-(p-chlorophenyl) benzamide]
- plasma cholesterol level ([2]; HFD-fed mice receiving HPN-01): 43.0 ± 15.5 mg/dL
- plasma triglyceride level ([2]; HFD-fed mice receiving HPN-01): 31.2 ± 4.5 mg/dL
- hepatic SREBP-1 expression (relative) [2, 4]: 0.52±0.06
- hepatic cholesterol level [2, 4]: 3.9±1.1 mg per g tissue
- hepatic fatty acid synthesis [2, 4]: 13.2±2.8 DPMs/mg
- size and color of liver ([2]; HFD-fed mice, 25 mg/kg daily): very similar to the control mice
- LD deposition and inflammatory infiltration in liver sections (H&E, Oil-red-O) ([2]; HFD-fed mice, 25 mg/kg daily, preventing and treatment groups): substantially diminished
- body weight increase / HFD-triggered obesity [2, 5]: significantly remitted; also recorded: reversed HFD-triggered obesity
- fat deposition / visceral fat accumulation [2, 5]: significantly remitted; also recorded: significantly alleviated visceral fat accumulation
- liver glycogen level [2, 6]: 8.4 ± 1.6 µg/mg
- liver triglyceride level [2, 6]: 67.2 ± 28.3 mg/g
- liver glycogen level [2, 7]: 13.3 ± 3.5 µg/mg
- liver triglyceride level [2, 7]: 75.5 ± 19.8 mg/g
- decrease of hepatic cholesterol vs vehicle ([2]; HFD-fed mice, vs vehicle only): about 1.92 fold
- decrease of hepatic fatty acid synthesis vs vehicle ([2]; HFD-fed mice, vs vehicle only): about 3.18 fold
- decrease of plasma cholesterol vs vehicle ([2]; HFD-fed mice, vs vehicle only): 2.75 fold
- decrease of plasma triglyceride vs vehicle ([2]; HFD-fed mice, vs vehicle only): 1.87 fold
- reduction of hepatic SREBP-1 expression vs vehicle ([2]; HFD-fed mice, vs vehicle only): about 48%
- HFD induction of ITGA2, LOX, TIMP1, IGFBP1, IGFBP2, IGFBP3, IGFBP5, IGFBP6 and FGF-21 in liver ([2]; liver tissue mRNA, HFD-fed mice): significantly suppressed
- HFD induction of hepatic expression of ICAM1(CD54), IL-1B, IL-8, MCP-1, THF-α and LIF ([2]; liver tissue, HFD-fed mice): substantially abrogated; also recorded: suppressed
- expression level of TIMP2 (fibrosis suppressor) in liver ([2]; liver tissue, HFD-fed mice): increased
- IC50 (SREBP-2): 3430 nM
- IC50 (SREBP-1): 1710 nM

From patent US11000491B2, “Amino-aryl-benzamide compounds and methods of use thereof” (HEPANOVA, INC., priority 2017, dated 2021)
